Values belong to the compound of their own block, whether it stands above or below them. The source made the active and inactive calls. The rule behind the calls is not given here.
Assays:
MCF7 [1] = assay: Cytotoxicity against human MCF7 cells assessed as reduction in cell viability at 0.625 to 20 uM incubated for 6 days by SRB assay; format: functional, cell-based; conditions: dose 0.625-20 µM, time 6.0 day
SK-BR-3 [2] = assay: Cytotoxicity against human SK-BR-3 cells assessed as reduction in cell viability at 0.625 to 20 uM incubated for 6 days by SRB assay; format: functional, cell-based; conditions: dose 0.625-20 µM, time 6.0 day
Quadruplex DNA [3] = conditions: time 10.0 min
Quadruplex DNA [4] = conditions: time 10.0 min; remark: listed apart in the source
Quadruplex DNA [5] = conditions: time 10.0 min; remark: listed apart in the source
Quadruplex DNA [6] = conditions: time 10.0 min; remark: listed apart in the source
Quadruplex RNA [7] = conditions: time 10.0 min
Quadruplex RNA [8] = conditions: time 10.0 min; remark: listed apart in the source
MDA-MB-231 [9] = assay: Cytotoxicity against human MDA-MB-231 cells assessed as reduction in cell viability incubated for 6 days by SRB assay; format: functional, cell-based; conditions: Homo sapiens, MDA-MB-231, 144 h
MCF7 [10] = assay: Cytotoxicity against human MCF7 cells assessed as reduction in cell viability incubated for 6 days by SRB assay; format: functional, cell-based; conditions: Homo sapiens, MCF7, 144 h
SK-BR-3 [11] = assay: Cytotoxicity against human SK-BR-3 cells assessed as reduction in cell viability incubated for 6 days by SRB assay; format: functional, cell-based; conditions: Homo sapiens, SK-BR-3, 144 h
MCF7 [12] = assay: Induction of cell cycle arrest in human MCF7 cells assessed as reduction in G1 phase at IC25 concentration incubated for 6 days by PI staining based flow cytometric analysis; format: functional; conditions: time 6.0 day
MCF7 [13] = assay: Induction of cell cycle arrest in human MCF7 cells assessed as reduction in G1 phase at IC50 concentration incubated for 6 days by PI staining based flow cytometric analysis; format: functional; conditions: time 6.0 day
MDA-MB-231 [14] = assay: Induction of cell cycle arrest in human MDA-MB-231 cells assessed as reduction in G1 phase at IC25 concentration incubated for 6 days by PI staining based flow cytometric analysis; format: functional; conditions: time 6.0 day
MDA-MB-231 [15] = assay: Induction of cell cycle arrest in human MDA-MB-231 cells assessed as reduction in G1 phase at IC50 concentration incubated for 6 days by PI staining based flow cytometric analysis; format: functional; conditions: time 6.0 day
SK-BR-3 [16] = assay: Induction of cell cycle arrest in human SK-BR-3 cells assessed as accumulation of cells at G2/M phase at IC25 concentration incubated for 6 days by PI staining based flow cytometric analysis; format: functional; conditions: time 6.0 day
SK-BR-3 [17] = assay: Induction of cell cycle arrest in human SK-BR-3 cells assessed as accumulation of cells at G2/M phase at IC50 concentration incubated for 6 days by PI staining based flow cytometric analysis; format: functional; conditions: time 6.0 day
MDA-MB-231 [18] = assay: Induction of DNA damage in human MDA-MB-231 cells assessed as increase in gamma-H2AX level at IC25 concentration incubated for 6 days by flow cytometric analysis; format: functional, cell-based; conditions: time 6.0 day
MDA-MB-231 [19] = assay: Induction of DNA damage in human MDA-MB-231 cells assessed as increase in gamma-H2AX level at IC50 concentration incubated for 6 days by flow cytometric analysis; format: functional, cell-based; conditions: time 6.0 day
MCF7 [20] = assay: Induction of DNA damage in human MCF7 cells assessed as increase in gamma-H2AX level at IC25 concentration incubated for 6 days by flow cytometric analysis; format: functional, cell-based; conditions: time 6.0 day
MCF7 [21] = assay: Induction of DNA damage in human MCF7 cells assessed as increase in gamma-H2AX level at IC50 concentration incubated for 6 days by flow cytometric analysis; format: functional, cell-based; conditions: time 6.0 day
Quadruplex DNA [22] = assay: Stabilization of G4 quadruplex DNA (unknown origin) in human MCF7 cells at IC25 concentration incubated for 6 days by flow cytometric analysis; format: cell-based; conditions: time 6.0 day
Quadruplex DNA [23] = assay: Stabilization of G4 quadruplex DNA (unknown origin) in human MCF7 cells at IC50 concentration incubated for 6 days by flow cytometric analysis; format: cell-based; conditions: time 6.0 day
Quadruplex DNA [24] = assay: Stabilization of G4 quadruplex DNA (unknown origin) in human SK-BR-3 cells assessed as increase in G4 motif at IC50 concentration incubated for 6 days by flow cytometric analysis; format: cell-based; conditions: time 6.0 day
SK-BR-3 [25] = assay: Induction of DNA damage in human SK-BR-3 cells assessed as increase in gamma-H2AX level at IC25 concentration incubated for 6 days by flow cytometric analysis; format: functional, cell-based; conditions: time 6.0 day
SK-BR-3 [26] = assay: Induction of DNA damage in human SK-BR-3 cells assessed as increase in gamma-H2AX level at IC50 concentration incubated for 6 days by flow cytometric analysis; format: functional, cell-based; conditions: time 6.0 day
MCF7 [27] = assay: Downregulation of c-MYC protein expression in human MCF7 cells at IC50 concentration incubated for 6 days by Western blotting analysis; format: functional, cell-based; conditions: time 6.0 day
Quadruplex DNA [28] = assay: Binding affinity to c-Myc G4 quadruplex DNA (TGAGGGTGGGTAGGGTGGGTAA) (unknown origin) assessed as equilibrium binding constant (Ka) by ITC analysis; format: nucleic-acid assay
Quadruplex DNA [29] = assay: Binding affinity to HER2 G4 quadruplex DNA (GGAGAAGGAGGAGGTGGAGGAGGAGGG) (unknown origin) assessed as equilibrium binding constant (Ka) by ITC analysis; format: nucleic-acid assay
Quadruplex DNA [30] = assay: Binding affinity to c-Myc G4 quadruplex DNA (TGAGGGTGGGTAGGGTGGGTAA) (unknown origin) assessed as Gibbs free energy by ITC analysis; format: nucleic-acid assay
Quadruplex DNA [31] = assay: Binding affinity to HER2 G4 quadruplex DNA (GGAGAAGGAGGAGGTGGAGGAGGAGGG) (unknown origin) assessed as Gibbs free energy by ITC analysis; format: nucleic-acid assay
Quadruplex DNA [32] = assay: Binding affinity to c-Myc G4 quadruplex DNA (TGAGGGTGGGTAGGGTGGGTAA) (unknown origin) assessed as binding enthalpy by ITC analysis; format: nucleic-acid assay
Quadruplex DNA [33] = assay: Binding affinity to HER2 G4 quadruplex DNA (GGAGAAGGAGGAGGTGGAGGAGGAGGG) (unknown origin) assessed as binding enthalpy by ITC analysis; format: nucleic-acid assay
Quadruplex DNA [34] = assay: Binding affinity to c-Myc G4 quadruplex DNA (TGAGGGTGGGTAGGGTGGGTAA) (unknown origin) assessed as change in entropy by ITC analysis; format: nucleic-acid assay
Quadruplex DNA [35] = assay: Binding affinity to HER2 G4 quadruplex DNA (GGAGAAGGAGGAGGTGGAGGAGGAGGG) (unknown origin) assessed as change in entropy by ITC analysis; format: nucleic-acid assay
MDA-MB-231 [36] = assay: Induction of DNA damage in human MDA-MB-231 cells assessed as increase in gamma-H2AX level incubated for 6 days by flow cytometric analysis; format: functional, cell-based; conditions: time 6.0 day

deltaTm1/2 (Quadruplex DNA [3]): 4.5 °C | deltaTm1/2 (Quadruplex DNA [4]): -2.6 °C | deltaTm1/2 (Quadruplex DNA [5]): 9.8 °C | deltaTm1/2 (Quadruplex DNA [6]): 4.9 °C | deltaTm1/2 (Quadruplex RNA [7]): 8.5 °C | deltaTm1/2 (Quadruplex RNA [8]): 5.6 °C
Structure (SMILES): Cc1c(-c2ccccc2)oc2c(C(=O)OCCN3CCCCC3)cccc2c1=O
Activity (MCF7 [1]): Active | Activity (SK-BR-3 [2]): Active

Ka (Quadruplex DNA [28]): 1.5 10^5/M | Ka (Quadruplex DNA [29]): 2.2 10^5/M | deltaG (Quadruplex DNA [30]): -7.07 kcal/mol | deltaG (Quadruplex DNA [31]): -7.29 kcal/mol | deltaH (Quadruplex DNA [32]): -1.86 kcal/mol | deltaH (Quadruplex DNA [33]): -5.4 kcal/mol | TdeltaS (Quadruplex DNA [34]): 5.21 kcal/mol | TdeltaS (Quadruplex DNA [35]): 1.89 kcal/mol | deltaTm1/2 (Quadruplex DNA [3]): 19 °C | deltaTm1/2 (Quadruplex DNA [4]): 8.7 °C | deltaTm1/2 (Quadruplex DNA [5]): 19.6 °C | deltaTm1/2 (Quadruplex DNA [6]): 14.8 °C | deltaTm1/2 (Quadruplex RNA [7]): > 20 °C | deltaTm1/2 (Quadruplex RNA [8]): 6.6 °C
Structure (SMILES): CCc1c2c(nc3ccc(OC(=O)N4CCC(N5CCCCC5)CC4)cc13)-c1cc3c(c(=O)n1C2)COC(=O)[C@]3(O)CC [IRINOTECAN]
IC50 (MDA-MB-231 [9]): 1600 nM | IC25 (MDA-MB-231 [9]; time 6 day, read-out: IC25): 1100 nM | IC50 (MCF7 [10]): 480 nM | IC25 (MCF7 [10]; time 6 day, read-out: IC25): 280 nM | IC50 (SK-BR-3 [11]): 500 nM | IC25 (SK-BR-3 [11]; time 6 day, read-out: IC25): 360 nM | Activity (MCF7 [12]): Active | Activity (MCF7 [13]): Active | Activity (MDA-MB-231 [14]): Active | Activity (MDA-MB-231 [15]): Active | Activity (SK-BR-3 [16]): Active | Activity (SK-BR-3 [17]): Active | Activity (MDA-MB-231 [18]): Active | Activity (MDA-MB-231 [19]): Active | Activity (MCF7 [20]): Active; Slightly Lower Dna Damage Observed | Activity (MCF7 [21]): Active; Slightly Lower Dna Damage Observed | Activity (Quadruplex DNA [22]): Active | Activity (Quadruplex DNA [23]): Active | Activity (Quadruplex DNA [24]): Active | Activity (SK-BR-3 [25]): Active; Slightly Lower Dna Damage Observed | Activity (SK-BR-3 [26]): Active; Slightly Lower Dna Damage Observed | Activity (MCF7 [27]): Active | Activity (MDA-MB-231 [36]): Dose-dependent-effect

— ChEMBL document CHEMBL6153050, “Repurposing FDA-approved drugs to target G-quadruplexes in breast cancer” (Eur J Med Chem, 2025)
